Biological target: TYK2 (Homo sapiens, UniProt P29597)
Test: TYK2 protein degradation in NOMO-1 cells by immunoblotting
Format: cell-based
Parameters: endogenous in cells
Details: NOMO-1 cells
Outline: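 Read-out was densitometry of chemiluminescent TYK2 immunoblot bands from RIPA lysates after SDS-PAGE. Before lysis, NOMO-1 cells cultured in RPMI 1640 plus 10% FBS were treated for 16 h at 0.1, 1, 10, 100 and 1000 nM.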

Chain of TYK2 (P29597 whole entry): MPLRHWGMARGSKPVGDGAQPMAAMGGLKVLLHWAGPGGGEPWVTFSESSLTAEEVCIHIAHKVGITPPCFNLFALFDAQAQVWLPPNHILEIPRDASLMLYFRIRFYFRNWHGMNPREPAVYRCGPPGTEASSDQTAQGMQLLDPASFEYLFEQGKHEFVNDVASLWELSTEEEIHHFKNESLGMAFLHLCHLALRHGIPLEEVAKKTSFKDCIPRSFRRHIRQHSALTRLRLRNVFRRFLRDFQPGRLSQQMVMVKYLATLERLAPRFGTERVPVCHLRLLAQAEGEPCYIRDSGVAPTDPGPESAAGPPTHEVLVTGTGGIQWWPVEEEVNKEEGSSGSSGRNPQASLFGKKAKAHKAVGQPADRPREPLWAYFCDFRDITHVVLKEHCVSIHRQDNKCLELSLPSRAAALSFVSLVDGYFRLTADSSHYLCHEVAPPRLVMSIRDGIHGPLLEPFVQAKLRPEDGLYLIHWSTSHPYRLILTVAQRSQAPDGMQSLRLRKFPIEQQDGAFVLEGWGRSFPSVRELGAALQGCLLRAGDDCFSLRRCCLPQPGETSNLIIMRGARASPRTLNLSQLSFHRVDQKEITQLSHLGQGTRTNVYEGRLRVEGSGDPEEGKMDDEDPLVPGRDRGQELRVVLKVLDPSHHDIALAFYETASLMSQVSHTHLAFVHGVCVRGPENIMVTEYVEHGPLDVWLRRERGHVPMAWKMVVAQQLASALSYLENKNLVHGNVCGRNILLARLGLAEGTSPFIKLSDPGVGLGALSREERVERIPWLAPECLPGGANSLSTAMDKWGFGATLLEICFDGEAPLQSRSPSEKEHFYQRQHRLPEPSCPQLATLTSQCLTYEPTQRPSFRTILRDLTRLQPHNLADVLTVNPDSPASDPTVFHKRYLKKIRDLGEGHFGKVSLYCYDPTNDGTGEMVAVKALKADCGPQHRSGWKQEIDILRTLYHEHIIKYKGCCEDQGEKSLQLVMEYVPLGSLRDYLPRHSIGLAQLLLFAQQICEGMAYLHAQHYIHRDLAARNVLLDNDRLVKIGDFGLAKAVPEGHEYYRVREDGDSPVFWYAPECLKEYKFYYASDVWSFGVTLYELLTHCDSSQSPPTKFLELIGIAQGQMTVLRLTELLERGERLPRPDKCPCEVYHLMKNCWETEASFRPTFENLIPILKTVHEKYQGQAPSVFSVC

| TYK2 Degradation (NOMO-1, 10 nM) | TYK2 Degradation (NOMO-1, 100 nM) | SMILES |
| --- | --- | --- |
| A (A: ≥60% TYK2 degradation) | A (A: ≥60% TYK2 degradation) | CNC(=O)c1nnc(Nc2ccc(C#CC3CN(C(=O)CCCCCCC(=O)N[C@H](C(=O)N4C[C@H](O)C[C@H]4C(=O)N[C@@H](C)c4ccc(-c5scnc5C)cc4)C(C)(C)C)C3)cn2)cc1Nc1cccc(-c2ncn(C)n2)c1OC [CPD-125, 6-((5-((1-(8-(((S)-1-((2S,4R)-4-hydroxy-2-(((S)-1-(4-(4-methylthiazol-5-yl)phenyl)ethyl)carbamoyl)pyrrolidin-1-yl)-3,3-dimethyl-1-oxobutan-2-yl)amino)-8-oxooctanoyl)azetidin-3-yl)ethynyl)pyridin-2-yl)amino)-4-((2-methoxy-3-(1-methyl-H-1,2,4-triazol-3-yl)phenyl)amino)-N-methylpyridazine-3-carboxamide] |
| – | A (A: ≥60% TYK2 degradation) | CNC(=O)c1nnc(Nc2ccc(N3CCN(C4CCN(C(=O)CCCCCCC(=O)N[C@H](C(=O)N5C[C@H](O)C[C@H]5C(=O)N[C@@H](C)c5ccc(-c6scnc6C)cc5)C(C)(C)C)CC4)CC3)cn2)cc1Nc1cccc(-c2ncn(C)n2)c1OC [CPD-149, 6-((5-(4-(1-(8-(((S)-1-((2S,4R)-4-Hydroxy-2-(((S)-1-(4-(4-methylthiazol-5-yl)phenyl)ethyl)carbamoyl)pyrrolidin-1-yl)-3,3-dimethyl-1-oxobutan-2-yl)amino)-8-oxooctanoyl)piperidin-4-yl)piperazin-1-yl)pyridin-2-yl)amino)-4-((2-methoxy-3-(1-methyl-1H-1,2,4-triazol-3-yl)phenyl)amino)-N-methylpyridazine-3-carboxamide] |
| A (A: ≥60% TYK2 degradation) | A (A: ≥60% TYK2 degradation) | CNC(=O)c1nnc(Nc2ccc(C(=O)NCCOCCNc3cccc4c3C(=O)N(C3CCC(=O)NC3=O)C4=O)cn2)cc1Nc1cccc(-c2ncn(C)n2)c1OC (stereo not drawn) [CPD-159, 6-((5-((2-(2-((2-(2,6-dioxopiperidin-3-yl)-1,3-dioxoisoindolin-4-yl)amino)ethoxy)ethyl)carbamoyl)pyridin-2-yl)amino)-4-((2-methoxy-3-(1-methyl-1H-1,2,4-triazol-3-yl)phenyl)amino)-N-methylpyridazine-3-carboxamide] |
| – | A (A: ≥60% TYK2 degradation) | CNC(=O)c1nnc(Nc2ccc(CNC(=O)CCCCCCCC(=O)N[C@H](C(=O)N3C[C@H](O)C[C@H]3C(=O)N[C@@H](C)c3ccc(-c4scnc4C)cc3)C(C)(C)C)cn2)cc1Nc1cccc(-c2ncn(C)n2)c1OC [CPD-132, N1-((S)-1-((2S,4R)-4-Hydroxy-2-(((S)-1-(4-(4-methylthiazol-5-yl)phenyl)ethyl)carbamoyl)pyrrolidin-1-yl)-3,3-dimethyl-1-oxobutan-2-yl)-N9-((6-((5-((2-methoxy-3-(1-methyl-1H-1,2,4-triazol-3-yl)phenyl)amino)-6-(methylcarbamoyl)pyridazin-3-yl)amino)pyridin-3-yl)methyl)nonanediamide] |
| – | C (C: ≤20% TYK2 degradation) | CNC(=O)c1nnc(Nc2ccc(CNC(=O)CCC(=O)N[C@H](C(=O)N3C[C@H](O)C[C@H]3C(=O)N[C@@H](C)c3ccc(-c4scnc4C)cc3)C(C)(C)C)cn2)cc1Nc1cccc(-c2ncn(C)n2)c1OC [CPD-128, N1-((S)-1-((2S,4R)-4-Hydroxy-2-(((S)-1-(4-(4-methylthiazol-5-yl)phenyl)ethyl)carbamoyl)pyrrolidin-1-yl)-3,3-dimethyl-1-oxobutan-2-yl)-N4-((6-((5-((2-methoxy-3-(1-methyl-1H-1,2,4-triazol-3-yl)phenyl)amino)-6-(methylcarbamoyl)pyridazin-3-yl)amino)pyridin-3-yl)methyl)succinamide] |

Further lines, the compound ahead of its results:

| SMILES | TYK2 Degradation (NOMO-1, 10 nM) | TYK2 Degradation (NOMO-1, 100 nM) |
| --- | --- | --- |
| CNC(=O)c1nnc(Nc2ccc(N3CCN(C(=O)CCCCCCC(=O)N[C@H](C(=O)N4C[C@H](O)C[C@H]4C(=O)N[C@@H](C)c4ccccc4)C(C)(C)C)CC3)cn2)cc1Nc1cccc(-c2ncn(C)n2)c1OC [CDD-169, 6-((5-(4-(8-(((S)-1-((2S,4R)-4-hydroxy-2-(((S)-1-phenylethyl)carbamoyl)pyrrolidin-1-yl)-3,3-dimethyl-1-oxobutan-2-yl)amino)-8-oxooctanoyl)piperazin-1-yl)pyridin-2-yl)amino)-4-((2-methoxy-3-(1-methyl-1H-1,2,4-triazol-3-yl)phenyl)amino)-N-methylpyridazine-3-carboxamide] | C (C: ≤20% TYK2 degradation) | C (C: ≤20% TYK2 degradation) |
| CNC(=O)c1nnc(Nc2ccc(C#CC3CCN(C(=O)CCCCCCC(=O)N[C@H](C(=O)N4C[C@H](O)C[C@H]4C(=O)N[C@@H](C)c4ccc(-c5scnc5C)cc4)C(C)(C)C)CC3)cn2)cc1Nc1cccc(-c2ncn(C)n2)c1OC [CPD-119, 6-((5-((1-(8-(((S)-1-((2S,4R)-4-Hydroxy-2-(((S)-1-(4-(4-methylthiazol-5-yl)phenyl)ethyl)carbamoyl)pyrrolidin-1-yl)-3,3-dimethyl-1-oxobutan-2-yl)amino)-8-oxooctanoyl)piperidin-4-yl)ethynyl)pyridin-2-yl)amino)-4-((2-methoxy-3-(1-methyl-1H-1,2,4-triazol-3-yl)phenyl)amino)-N-methylpyridazine-3-carboxamide] | – | A (A: ≥60% TYK2 degradation) |
| CNC(=O)c1nnc(Nc2ccc(N3CCN(C(=O)CCCCCCC(=O)N[C@H](C(=O)N4C[C@H](O)C[C@H]4C(=O)N[C@H]4CCCc5c4cc(C#N)n5C)C(C)(C)C)CC3)cn2)cc1Nc1cccc(-c2ncn(C)n2)c1OC [CDD-173, 6-((5-(4-(8-(((S)-1-((2S,4R)-2-(((S)-2-cyano-1-methyl-4,5,6,7-tetrahydro-1H-indol-4-yl)carbamoyl)-4-hydroxypyrrolidin-1-yl)-3,3-dimethyl-1-oxobutan-2-yl)amino)-8-oxooctanoyl)piperazin-1-yl)pyridin-2-yl)amino)-4-((2-methoxy-3-(1-methyl-1H-1,2,4-triazol-3-yl)phenyl)amino)-N-methylpyridazine-3-carboxamide] | C (C: ≤20% TYK2 degradation) | C (C: ≤20% TYK2 degradation) |
| CNC(=O)c1nnc(Nc2ccc(C#CC3CN(C(=O)CCCCCC(=O)N[C@H](C(=O)N4C[C@H](O)C[C@H]4C(=O)N[C@@H](C)c4ccc(-c5scnc5C)cc4)C(C)(C)C)C3)cn2)cc1Nc1cccc(-c2ncn(C)n2)c1OC [CPD-124, 6-((5-((1-(7-(((S)-1-((2S,4R)-4-hydroxy-2-(((S)-1-(4-(4-methylthiazol-5-yl)phenyl)ethyl)carbamoyl)pyrrolidin-1-yl)-3,3-dimethyl-1-oxobutan-2-yl)amino)-7-oxoheptanoyl)azetidin-3-yl)ethynyl)pyridin-2-yl)amino)-4-((2-methoxy-3-(1-methyl-1H-1,2,4-triazol-3-yl)phenyl)amino)-N-methylpyridazine-3-carboxamide] | A (A: ≥60% TYK2 degradation) | A (A: ≥60% TYK2 degradation) |
| CNC(=O)c1nnc(Nc2ccc(N3CCN(C(=O)CCCCCCC(=O)N[C@H](C(=O)N4C[C@H](O)C[C@H]4C(=O)NCc4ccc(C#N)cn4)C(C)(C)C)CC3)cn2)cc1Nc1cccc(-c2ncn(C)n2)c1OC [CDD-172, 6-((5-(4-(8-(((S)-1-((2S,4R)-2-(((5-cyanopyridin-2-yl)methyl)carbamoyl)-4-hydroxypyrrolidin-1-yl)-3,3-dimethyl-1-oxobutan-2-yl)amino)-8-oxooctanoyl)piperazin-1-yl)pyridin-2-yl)amino)-4-((2-methoxy-3-(1-methyl-1H-1,2,4-triazol-3-yl)phenyl)amino)-N-methylpyridazine-3-carboxamide] | C (C: ≤20% TYK2 degradation) | C (C: ≤20% TYK2 degradation) |
| CNC(=O)c1nnc(Nc2ccc(N3CCN(C4CCN(C(=O)CCCC(=O)N[C@H](C(=O)N5C[C@H](O)C[C@H]5C(=O)N[C@@H](C)c5ccc(-c6scnc6C)cc5)C(C)(C)C)CC4)CC3)cn2)cc1Nc1cccc(-c2ncn(C)n2)c1OC [CPD-146, 6-((5-(4-(1-(5-(((S)-1-((2S,4R)-4-Hydroxy-2-(((S)-1-(4-(4-methylthiazol-5-yl)phenyl)ethyl)carbamoyl)pyrrolidin-1-yl)-3,3-dimethyl-1-oxobutan-2-yl)amino)-5-oxopentanoyl)piperidin-4-yl)piperazin-1-yl)pyridin-2-yl)amino)-4-((2-methoxy-3-(1-methyl-1H-1,2,4-triazol-3-yl)phenyl)amino)-N-methylpyridazine-3-carboxamide] | B (B: <60% TYK2 degradation, and >20% TYK2 degradation) | A (A: ≥60% TYK2 degradation) |
| CNC(=O)c1nnc(Nc2ccc(C#CC3CCN(C(=O)CCCCCCCC(=O)N[C@H](C(=O)N4C[C@H](O)C[C@H]4C(=O)N[C@@H](C)c4ccc(-c5scnc5C)cc4)C(C)(C)C)CC3)cn2)cc1Nc1cccc(-c2ncn(C)n2)c1OC [CPD-120, 6-((5-((1-(9-(((S)-1-((2S,4R)-4-Hydroxy-2-(((S)-1-(4-(4-methylthiazol-5-yl)phenyl)ethyl)carbamoyl)pyrrolidin-1-yl)-3,3-dimethyl-1-oxobutan-2-yl)amino)-9-oxononanoyl)piperidin-4-yl)ethynyl)pyridin-2-yl)amino)-4-((2-methoxy-3-(1-methyl-1H-1,2,4-triazol-3-yl)phenyl)amino)-N-methylpyridazine-3-carboxamide] | – | A (A: ≥60% TYK2 degradation) |
| CNC(=O)c1nnc(Nc2ccc(C(=O)NCCCCCCC(=O)N[C@H](C(=O)N3C[C@H](O)C[C@H]3C(=O)N[C@@H](C)c3ccc(-c4scnc4C)cc3)C(C)(C)C)cn2)cc1Nc1cccc(-c2ncn(C)n2)c1OC [CPD-142, 6-((5-((7-(((S)-1-((2S,4R)-4-Hydroxy-2-(((S)-1-(4-(4-methylthiazol-5-yl)phenyl)ethyl)carbamoyl)pyrrolidin-1-yl)-3,3-dimethyl-1-oxobutan-2-yl)amino)-7-oxoheptyl)carbamoyl)pyridin-2-yl)amino)-4-((2-methoxy-3-(1-methyl-1H-1,2,4-triazol-3-yl)phenyl)amino)-N-methylpridazine-3-carboxamide] | B (B: <60% TYK2 degradation, and >20% TYK2 degradation) | A (A: ≥60% TYK2 degradation) |

From patent publication US20240059671A1, “TYROSINE KINASE 2 (TYK2) DEGRADATION COMPOUNDS AND METHODS OF USE” (CULLGEN (SHANGHAI), INC., priority 2020, published 2024)
